Among the targets are Cytochrome P450 2C9 (Homo sapiens, UniProt P11712); Cytochrome P450 3A4 (Homo sapiens, UniProt P08684); Cytochrome P450 2D6 (Homo sapiens, UniProt P10635).
For data set [1], the target named is FAD-linked sulfhydryl oxidase ALR (Homo sapiens, UniProt P55789). Put plainly: ALR-catalysed DTT oxidation blockers – biochemical, H2O2 detection, luminescence, cherry-pick, dose response (AID 493248).
Data set [2] in a line: microbe, parasite or virus in culture. Format: functional. The following applies: Mycobacterium tuberculosis.
Data set [3] has as its target T1, Heat shock factor protein 1 (Mus musculus, UniProt P38532).
T1 sequence (P38532 whole entry): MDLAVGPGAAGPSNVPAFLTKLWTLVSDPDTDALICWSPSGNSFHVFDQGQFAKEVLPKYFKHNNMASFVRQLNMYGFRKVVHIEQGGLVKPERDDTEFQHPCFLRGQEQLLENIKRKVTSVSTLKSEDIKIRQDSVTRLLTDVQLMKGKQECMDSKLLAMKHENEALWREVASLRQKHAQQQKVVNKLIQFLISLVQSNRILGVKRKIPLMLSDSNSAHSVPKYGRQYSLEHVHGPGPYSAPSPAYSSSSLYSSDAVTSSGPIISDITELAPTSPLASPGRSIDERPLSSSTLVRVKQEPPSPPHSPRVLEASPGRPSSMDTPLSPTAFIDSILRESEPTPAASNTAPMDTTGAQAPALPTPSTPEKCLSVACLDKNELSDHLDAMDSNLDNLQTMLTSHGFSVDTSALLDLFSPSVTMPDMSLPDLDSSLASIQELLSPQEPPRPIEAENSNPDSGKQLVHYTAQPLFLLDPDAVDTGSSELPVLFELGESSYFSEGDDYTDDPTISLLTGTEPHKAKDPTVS
Put plainly: enhancement of HSF1-driven luciferase signal – cell-based, NIH3T3, luminescence, dose retest, confirmation (AID 435004).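 Further: stress induced by proteasome inhibitor MG132 added 30 min after compound; luciferase reporter driven by HSF1 response element in NIH3T3 cells; actives raise luminescence as potentiators of the MG132 stress response.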 In kind it is functional.

The next data set addresses T2, Cytochrome P450 1A2 (Homo sapiens, UniProt P05177).
T2 sequence (P05177 whole entry): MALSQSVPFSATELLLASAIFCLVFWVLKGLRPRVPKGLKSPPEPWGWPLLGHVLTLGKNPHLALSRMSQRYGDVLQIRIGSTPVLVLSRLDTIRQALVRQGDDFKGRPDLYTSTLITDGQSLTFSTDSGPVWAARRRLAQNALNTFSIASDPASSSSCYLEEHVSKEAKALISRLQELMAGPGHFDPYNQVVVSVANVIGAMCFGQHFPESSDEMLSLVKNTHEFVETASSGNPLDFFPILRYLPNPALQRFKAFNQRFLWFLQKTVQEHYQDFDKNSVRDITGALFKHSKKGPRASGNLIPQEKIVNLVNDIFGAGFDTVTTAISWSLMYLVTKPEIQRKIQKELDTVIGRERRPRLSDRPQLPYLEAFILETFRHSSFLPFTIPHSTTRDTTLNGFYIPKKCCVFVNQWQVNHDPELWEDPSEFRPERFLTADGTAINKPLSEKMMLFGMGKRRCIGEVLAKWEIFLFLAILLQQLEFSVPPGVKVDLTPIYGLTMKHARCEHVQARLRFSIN

A further data set has as its target Cytochrome P450 2C19 (Homo sapiens, UniProt P33261). Put plainly: Cytochrome panel assay with activity outcomes. Panel member name: p450-cyp2c19 Compounds with AC50 equal or less than 10 uM are considered active. In kind it is functional.
Data set [4] has as its target T1, Heat shock factor protein 1. Put plainly: decrease of HSF1-responsive luciferase luminescence – cell-based, NIH3T3, dose retest, confirmation (AID 2382).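 Further: NIH3T3 fibroblasts with HSF1-driven luciferase reporter stressed by proteasome inhibitor MG132; luminescence from HSF1-driven luciferase expression after 8 hours of MG132 stress.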 In kind it is functional.
Data set [5] is described as follows: Luminescence Cell-Based Dose Response HTS to Identify Inhibitors of 5'UTR Stem-Loop Driven Prion Protein mRNA Translation in H4 Neuroglioblastoma Cells. [Related pubchem assays: 1827 (Project Summary), 1813 (Primary HTS)]. Format: functional.
A short description of data set [6]: NIH3T3 cell viability loss – ATP luminescence, mouse fibroblasts, counter-screen, dose response (AID 2010).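 Further: cells exposed to compound for about 90 hours before reading.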 In kind it is functional, cell-based. A general note: The purpose of a counterscreen is to sort out artefacts and off-target activity.
Data set [7] in a line: Trypanosoma cruzi growth suppression in host cells – NIH3T3 host cells, beta-gal luminescence, confirmation (AID 2044).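 Further: intracellular parasites grown in NIH/3T3 mouse fibroblasts as host cells; luminescent beta-galactosidase reporter signal from transgenic T. cruzi replicating inside host cells; inhibitors lower the luminescence signal.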 In kind it is functional, cell-based.

Calls of active or inactive are those of the source.

FAD-linked sulfhydryl oxidase ALR, sequence (P55789 whole entry): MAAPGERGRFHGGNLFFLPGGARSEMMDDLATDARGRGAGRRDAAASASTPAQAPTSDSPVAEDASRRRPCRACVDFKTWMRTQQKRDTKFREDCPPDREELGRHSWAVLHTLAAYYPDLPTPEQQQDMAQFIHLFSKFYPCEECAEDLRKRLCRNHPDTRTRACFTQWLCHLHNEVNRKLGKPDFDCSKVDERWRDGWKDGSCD
Cytochrome P450 2D6, sequence (P10635 whole entry): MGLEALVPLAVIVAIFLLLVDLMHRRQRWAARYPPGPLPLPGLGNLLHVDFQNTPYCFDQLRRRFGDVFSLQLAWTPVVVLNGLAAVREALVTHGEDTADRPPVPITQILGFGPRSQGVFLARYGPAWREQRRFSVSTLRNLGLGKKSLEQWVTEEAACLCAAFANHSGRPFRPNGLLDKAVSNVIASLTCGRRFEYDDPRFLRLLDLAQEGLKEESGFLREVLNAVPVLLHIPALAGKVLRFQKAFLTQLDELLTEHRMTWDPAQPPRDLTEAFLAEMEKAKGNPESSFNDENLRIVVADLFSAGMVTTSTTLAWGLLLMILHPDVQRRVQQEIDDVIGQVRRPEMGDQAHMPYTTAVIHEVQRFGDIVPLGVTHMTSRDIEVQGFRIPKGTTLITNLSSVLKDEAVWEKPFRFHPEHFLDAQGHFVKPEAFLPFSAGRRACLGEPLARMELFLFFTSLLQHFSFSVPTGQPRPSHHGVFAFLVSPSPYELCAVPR
Cytochrome P450 3A4, sequence (P08684 whole entry): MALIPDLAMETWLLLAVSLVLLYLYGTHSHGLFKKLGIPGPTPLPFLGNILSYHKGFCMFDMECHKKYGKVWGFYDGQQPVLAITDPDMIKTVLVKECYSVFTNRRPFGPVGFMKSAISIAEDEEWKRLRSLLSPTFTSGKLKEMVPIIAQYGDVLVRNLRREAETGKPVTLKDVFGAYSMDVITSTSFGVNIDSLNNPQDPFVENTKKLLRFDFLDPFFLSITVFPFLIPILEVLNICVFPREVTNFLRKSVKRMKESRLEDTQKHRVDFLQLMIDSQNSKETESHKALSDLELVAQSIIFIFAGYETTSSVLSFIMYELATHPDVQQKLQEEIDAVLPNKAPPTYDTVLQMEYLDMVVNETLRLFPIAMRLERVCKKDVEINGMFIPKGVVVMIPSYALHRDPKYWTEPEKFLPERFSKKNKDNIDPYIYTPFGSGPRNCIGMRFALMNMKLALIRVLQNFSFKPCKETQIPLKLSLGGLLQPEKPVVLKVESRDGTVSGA
Cytochrome P450 2C9, sequence (P11712 whole entry): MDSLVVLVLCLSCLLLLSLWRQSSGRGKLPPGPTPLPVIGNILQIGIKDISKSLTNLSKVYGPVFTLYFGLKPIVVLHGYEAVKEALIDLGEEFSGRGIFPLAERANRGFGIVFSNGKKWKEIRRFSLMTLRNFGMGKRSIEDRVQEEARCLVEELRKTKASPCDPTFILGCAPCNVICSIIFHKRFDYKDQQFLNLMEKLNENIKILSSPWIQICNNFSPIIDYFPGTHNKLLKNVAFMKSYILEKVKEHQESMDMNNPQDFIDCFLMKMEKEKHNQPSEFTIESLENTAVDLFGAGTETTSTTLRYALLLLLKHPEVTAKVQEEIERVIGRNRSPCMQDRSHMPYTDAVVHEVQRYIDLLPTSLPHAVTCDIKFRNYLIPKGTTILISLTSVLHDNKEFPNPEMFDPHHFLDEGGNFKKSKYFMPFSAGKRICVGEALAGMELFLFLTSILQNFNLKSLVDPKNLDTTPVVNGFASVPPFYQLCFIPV
Cytochrome P450 2C19, sequence (P33261 whole entry): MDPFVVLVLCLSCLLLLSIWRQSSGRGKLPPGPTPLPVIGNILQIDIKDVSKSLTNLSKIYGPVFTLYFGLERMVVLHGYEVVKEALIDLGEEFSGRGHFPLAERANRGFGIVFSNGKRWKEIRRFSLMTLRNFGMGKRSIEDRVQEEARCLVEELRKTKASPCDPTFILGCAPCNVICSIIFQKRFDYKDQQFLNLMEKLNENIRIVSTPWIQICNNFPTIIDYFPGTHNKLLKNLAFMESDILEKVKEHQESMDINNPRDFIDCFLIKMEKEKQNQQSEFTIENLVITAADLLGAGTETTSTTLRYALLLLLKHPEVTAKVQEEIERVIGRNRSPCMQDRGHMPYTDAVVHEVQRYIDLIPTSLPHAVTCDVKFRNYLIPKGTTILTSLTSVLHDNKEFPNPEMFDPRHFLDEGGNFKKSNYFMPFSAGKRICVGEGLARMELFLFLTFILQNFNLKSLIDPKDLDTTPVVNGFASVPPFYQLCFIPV

In general, AC50 refers to the concentration at which the activity in the assay is half-maximal. As for `CCN1C/C(=C\c2cccc(C)c2)c2nc3ccccc3c(C(=O)O)c2C1`, the AC50 on Cytochrome P450 2C9 is 8.91 µM (inconclusive); at Cytochrome P450 3A4, 25.1 µM (inconclusive); on Cytochrome P450 2D6, 17.8 µM (inconclusive).
`COc1ccc(OC)c(NC(=O)CCN2CCN(c3ccccc3)CC2)c1`: in [1], the AC50 is 3.7 µM (active).
Turning to `COc1ccc2[nH]c(C(=O)c3ccccc3)cc2c1`, the AC50 on Cytochrome P450 2C9 was 39.8 µM (inconclusive).
For `CCC(=O)c1ccc(OCC(O)CN2CCN(c3cccc(C(F)(F)F)c3)CC2)cc1` (centres undefined), in [2], the CC50 was > 40 µM (active).
On the same count and under the same terms, with `Cn1c(NCC(O)c2ccccc2)nc2c1c(=O)n(Cc1ccc(Cl)c(Cl)c1)c(=O)n2C` (centres undefined) the figure was 25.5 µM (active).
Broadly, the EC50 is the midpoint of the concentration-response curve. On to `Cc1ccc(S(=O)(=O)NC2c3cccc4cccc(c34)C2Sc2nncn2C)cc1` (centres undefined), for which, in [3], the EC50 was > 260 µM (inactive).
Same read-out and setting: with `Cc1cc(C)c2cc(CN(Cc3ccco3)C(S)=NCC3CCCO3)c(O)nc2c1` (centres undefined) the figure was > 260 µM (inactive).
`c1coc(CN2CCN(C(c3cccs3)c3nnnn3C3CCCC3)CC2)c1` (centres undefined): the AC50 at Cytochrome P450 2C9 was 31.6 µM (inconclusive).
Consider `O=S(=O)(c1ccccc1)N1CCC2(CCN(Cc3ccncc3)CC2)CC1`, for which the AC50 at Cytochrome P450 2C9 and on Cytochrome P450 2D6 was 25.1 µM (inconclusive) in each case.
As to `Cc1nn(Cc2ccc(Cl)cc2)c(C)c1N`, the AC50 in data set [1] was 28.5 µM (active).
`O[C@@H]1C2CCCC1[C@]1(O)CCCCC1C2` (some centres undefined): in data set [3], the EC50 is > 260 µM (inactive).
Turning to `COC(=O)CCC(=O)C1=C(N)CC(C)(C)CC1=O`, the EC50 in data set [3] is > 260 µM (inactive).
As for `COc1ccccc1C(CNC(=O)C(C)(C)Oc1ccc(Cl)cc1)N1CCCC1` (centres undefined), the CC50 in data set [2] was > 40 µM (active).
Take `Oc1[nH]c2ccccc2c1C1=NCCCC1`: the AC50 in data set [1] is 0.325 µM (active).
Regarding `CCC(C)NC(=O)c1c(C)cc(=O)oc1C` (centres undefined), the figures for the AC50 on Cytochrome P450 2C9 and at Cytochrome P450 1A2 were 5.01 µM (inconclusive) and 28.2 µM (inconclusive), respectively.
As for `O=C(NCc1ccc(F)cc1)C1CCN(S(=O)(=O)N2CCCCC2)CC1`, the figures for the AC50 on Cytochrome P450 2C9, at Cytochrome P450 3A4 and on Cytochrome P450 2C19 (read-out: AC50) were 10 µM (inconclusive), 14.1 µM (inconclusive) and 31.6 µM (inconclusive), respectively.
With `O=C(COc1ccc(Cl)cc1)NCCCNC(=O)c1ccccn1`, in data set [3], the EC50 was > 260 µM (inactive).
As to `CCC(=O)N(C)CCc1cc2c(c(OC)c1/C=N/Nc1ccc(C(=O)O)cc1)OCO2`, the AC50 in data set [1] is 3.56 µM (active).
On to `CSCCC1NC(=O)N(CC(=O)N2N=C(c3ccc(Cl)cc3)CC2c2ccco2)C1=O` (centres undefined), for which, in data set [2], the CC50 is > 40 µM (active).
As for `O=C(O)c1ccc(/N=c2\oc3cc(O)ccc3cc2C(=O)NCc2ccccc2)cc1`, the AC50 in data set [1] was 1.71 µM (active).
`O=C(c1cc(C(F)(F)F)cc(C(F)(F)F)c1)N1CCC2(CCCN(c3ccncc3)C2)CC1`: the values for the AC50 at Cytochrome P450 2C9 and on Cytochrome P450 2D6 were 31.6 µM (inconclusive) and 15.8 µM (inconclusive), respectively.
For the molecule `CCOC(=O)C(=O)/C(C#N)=C/Nc1ccccc1`, the EC50 in data set [3] was 168 µM (active).
Same read-out and setting: under `CNC(=O)N(O)C1N(/N=C/c2c(F)cccc2Cl)C(=S)SC1(C)C` (centres undefined) stands > 260 µM (inactive).
`CCOC(=O)CSc1nc(O)c2cnn(-c3ccc(C)cc3)c2n1`: the figures for the AC50 on Cytochrome P450 2C9, on Cytochrome P450 3A4 and at Cytochrome P450 2C19 were 2.24 µM (inconclusive), 3.16 µM (inconclusive) and “inconclusive”, respectively.
As to `O=C(c1ccccc1)c1cccn1CC(=O)N1CCN(c2ccccc2)CC1`, the AC50 in data set [1] is 12.4 µM (active).
For the molecule `CN(C)c1ccc(N=Nc2ccc(C(=O)O)cc2)cc1`, the EC50 in data set [4] is 1.68 µM (active); in data set [5], 11.8 µM (active).
Turning to `CCCCN1C(=O)CN(CCc2ccccc2)C(=O)C1c1ccc(OC)cc1` (centres undefined), the AC50 is 20 µM (inconclusive) on Cytochrome P450 2C9 and 39.8 µM (inconclusive) at Cytochrome P450 2D6.
Regarding `COc1cccc(N/C([S-])=C(/C(=O)c2cc(C)n(-c3ccccc3F)c2C)[n+]2ccc(N(C)C)cc2)c1`, the CC50 in data set [2] is > 40 µM (active). The EC50 was > 60 µM (not active) in [6] and 0.645 µM (active) in data set [7].
With `O=C(COC(=O)C1CC2C=CC1C2)Nc1ccc2c(c1)OC(F)(F)O2` (centres undefined), in [3], the EC50 was > 260 µM (inactive).
Regarding `CO[C@H]1OC[C@@]2(C)[C@@H]3C4=C(CN2C(=O)OC(C)(C)C)[C@H](C)[C@H](CO)[C@H](CO)[C@H]4CC[C@H]13`, the concentration at half-maximal activity (AC50) at Cytochrome P450 2C9 is 20 µM (inconclusive); at Cytochrome P450 3A4 it was 10 µM (inconclusive); on Cytochrome P450 2C19 (read-out: AC50) it was 39.8 µM (inconclusive).
Regarding `COc1ccc(OC)c(NC(=O)CSCC(=O)O)c1`, the EC50 in data set [4] is given as > 195 µM (not active).
With `O=C(Nc1ccc(Oc2cccc(C(F)(F)F)c2)nc1)c1cccs1`, the CC50 in data set [2] was > 40 µM (active).
With `C/C(=N\NC(=O)c1nnn(-c2nonc2N)c1C(C)C)c1ccncc1`, the EC50 in data set [4] is given as > 195 µM (not active).
For the molecule `CN(c1ccccc1C(=O)N1CCN(c2ccccc2)CC1)S(C)(=O)=O`, the AC50 in [1] was 2.93 µM (active).
Take `COc1ccc(NC(C)C(=O)Nc2ccc(C(C)(C)C)cc2)cc1Cl` (centres undefined): the CC50 in data set [2] was > 40 µM (active).
For the molecule `CSc1cccc(NC(=O)c2ccc(Cl)nc2)c1`, the results for the AC50 at Cytochrome P450 2C9, at Cytochrome P450 2C19 (read-out: AC50) and on Cytochrome P450 2D6 were 39.8 µM (inconclusive), 25.1 µM (inconclusive) and 14.1 µM (inconclusive), respectively.
Turning to `CSc1ccc(C#N)cc1NC(=O)c1cccc(Cl)c1`, the AC50 on Cytochrome P450 2C9 is 39.8 µM (inconclusive); at Cytochrome P450 2D6 it was 10 µM (inconclusive).
Consider `O=C(c1ccco1)N1CCN=C1SCc1cccc(Cl)c1`, for which the AC50 in data set [1] was 18.1 µM (active).
The same measure, in the same setting: with `Cc1ccc(NC(=NO)c2nonc2N)cc1` the figure was 19.3 µM (active).
Consider `O=C(NCc1ccncc1)C(=O)Nc1nc(C23CC4CC(CC(C4)C2)C3)cs1`, for which, in [4], the EC50 is > 195 µM (not active).
In the case of `CCOc1cc(-c2c(C#N)c(O)nc3c2c(C)nn3-c2ccc(F)cc2)ccc1O`, the CC50 in data set [2] is > 40 µM (active).
`OC(COc1c(F)cc(Br)cc1F)CN1CCN(c2ccc(F)cc2)CC1` (centres undefined): in data set [4], the EC50 is recorded as > 195 µM (not active).
Turning to `CCCCn1cc(S(=O)(=O)c2ccccc2)c(=O)c2cc(C)ccc21`, the EC50 in data set [4] is on record as > 195 µM (not active).
Turning to `COc1cc(/C=N/NC(=O)c2ccc(CSc3nncn3C)cc2)cc(OC)c1O`, the AC50 in [1] was 2.25 µM (active).
As for `Cc1cccc(N(C(=O)c2ccc(CN3CCOCC3)o2)C(C(=O)NC(C)(C)C)c2ccc(F)cc2)c1` (centres undefined), the EC50 in data set [3] was > 260 µM (inactive).
On the same count and under the same terms, with `CCOC(=O)C1=C(c2ccccc2)NC(SC)=C(C#N)C1c1ccco1` (centres undefined) the figure was > 260 µM (inactive).

The record behind these values is ChEMBL document CHEMBL1201862, “PubChem BioAssay data set” (2004).
